Test results published in patent US20100183633A1, “INTERLEUKIN 6 AND TUMOR NECROSIS FACTOR ALPHA AS BIOMARKERS OF JNK INHIBITION” (UNIVERSITY OF MASSACHUSETTS, priority 2008, published 2010).

Experiments:
[1] = test system: N^KO and N^WT mice
Protocol: (§1) All studies with the selective ablation of the Jnk1 gene in the mouse nervous system were performed using male mice (8-24 wks old). The mice were treated with PTU in the drinking water (cherry-flavored Cool-Aid supplemented without or with 1.2 mM PTU (Sigma)). Body temperature was measured using a Microtherma 2 Type “T” Thermometer (Braintree Scientic Inc). Rip-CreESR mice were treated with 1 mg 4-hydroxytamoxifen (Sigma) by intraperitoneal injection once each day for 5 consecutive days.
N^KO and N^WT mice were treated with PTU in the drinking water and the effect of feeding a chow diet or a HFD was examined.

[2] = test system: Jnk1−/− mice; conditions: PTU-treated Jnk1−/− mice
Protocol: as §1

[3] = Blood IL6 concentration after subcutaneous IL6 injection; type: in vivo; conditions: IL6 1 μg/kg subcutaneous, HFD-fed F^KO mice, 90 mins post-injection, mean±SD, n=8
Protocol: (§2) FIG. 10E is a representation of an immunoblot to detect expression of SOCS3 and tubulin (control). F^WT and F^KO mice were fed a HFD (16 wks). F^KO mice were treated with IL6 (1 μg/kg) by subcutaneous injection. At 90 mins post-injection, the blood IL6 concentration was 44±9.1 pg/ml (mean±SD; n=8), the liver was isolated, and the expression of SOCS3 and Tubulin was examined by immunoblot analysis as set forth in Example 1.
Cytokine analysis: Cytokines in plasma, serum, and culture medium were measured by multiplexed ELISA using a Luminex 200 machine (Millipore) and serum mouse adipokine, adiponectin and cytokine kits (Millipore). Insulin and insulin C-peptide in plasma were measured by ELISA using a Luminex 200 machine. Blood glucose was measured with an Ascensia Breeze 2 glucose meter (Bayer). Alanine transaminase (ALT) and aspartate aminotransferase (AST) activity in serum was measured using the ALT and AST Reagent kit (Pointe Scientific) with a Tecan Sapphire […] microplate reader (Tecan Trading AG).

[4] = test system: SOCS3; test: Hepatic SOCS3 expression by immunoblot after IL6 treatment; type: in vivo; conditions: acute IL6 1 μg/kg s.c., HFD-fed F^KO mice, liver at 90 mins; compared with HFD-fed F^WT
Protocol: as §2
(§3) Immunoblot analysis: Tissue extracts were prepared using Triton lysis buffer [20 mM Tris (pH 7.4), 1% Triton X-100, 10% glycerol, 137 mM NaCl, 2 mM EDTA, 25 mM β-glycerophosphate, 1 mM sodium orthovanadate, 1 mM phenylmethylsulfonyl fluoride, and 10 μg/mL of aprotinin and leupeptin]. […] Immunocomplexes were detected by enhanced chemiluminescence (NEN). Quantitation of immunoblots was performed using the Odyssey™ infrared imaging system (LI-COR Biosciences). The amount of total and phospho-JNK1/2, cJun, ERK1/2, p38 MAPK, and AKT in tissue extracts was measured by multiplexed ELISA using a Luminex 200 instrument (Millipore) […]

[5] = test system: HFD-fed F^KO mice; test: Insulin tolerance test after IL6 treatment; type: in vivo; conditions: IL6 1 μg/kg s.c., then insulin 0.75 mU/g i.p. after 90 mins; HFD-fed F^KO vs HFD-fed F^WT
Protocol: FIG. 10F is a graph of the glucose concentration during an ITT in which mice were treated by subcutaneous injection with IL6 (1 μg/kg) and then treated (after 90 mins) with insulin (0.75 mU/g) by intraperitoneal injection. Statistically significant differences between F^KO and F^WT mice are indicated (*, P<0.05; **, P<0.01).
Glucose tolerance, insulin tolerance, pyruvate challenge, and insulin clearance tests: The mice were fed a standard chow diet or a high fat diet (Iso Pro 3000, Purina and F3282, Bioserve Inc.) for 16 wks. Glucose tolerance tests (GTT), insulin tolerance tests (ITT), and pyruvate challenge tests were performed using methods described by Mora et al., FEBS Lett., 579, 3632 (2005). For GTT, mice fasted overnight were injected intraperitoneally with glucose (1 mg/g) and blood glucose concentration was measured over time. For ITT, mice fed ad libitum were injected intraperitoneally with insulin (0.75 mU/g) and blood glucose concentration was measured over time. In some ITT experiments, blood glucose concentration was measured at 30 minutes and the area under the curve (AUC) was calculated. For pyruvate challenge tests, mice fasted overnight were injected intraperitoneally with pyruvate (1 mg/g) and blood glucose concentration was measured over time. […]

[6] = test system: AKT; test: Insulin-stimulated AKT activation (immunoblot) after IL6 treatment; type: in vivo; conditions: IL6 1 μg/kg s.c., insulin 0.3 mU/g i.v. after 90 mins, HFD-fed F^KO mice
Protocol: FIGS. 10G and 10H are representations of immunoblots to detect AKT, phospho-AKT, and tubulin in liver (G) and epididymal fat pads (H). HFD-fed F^KO mice were subcutaneously injected with IL6 (1 μg/kg) and after 90 mins, intravenously injected with insulin (0.3 mU/g). The liver (G) and epididymal fat pads (H) were isolated after 5 mins and examined by immunoblot analysis as set forth in Example 1.
as §3

Molecule	expression of thyroid hormone responsive genes in intrascapular brown fat ([1]; PTU 1.2 mM in drinking water, NKO mice)	body weight when fed a HFD, N^KO vs N^WT ([1]; PTU in drinking water 12 wks, diet groups after 2 wks)	blood glucose, insulin, leptin and resistin concentrations and body temperature, N^KO vs N^WT ([1]; after 12 wks of PTU, chow-fed and HFD-fed)	metabolic phenotypes of NKO mice ([1]; inhibition of thyroid hormone by PTU-treatment)	effect of whole body JNK1-deficiency on HFD-induced weight gain, hyperglycemia, glucose intolerance, insulin sensitivity, glucose-induced insulin release [2]	blood IL6 concentration [3] [pg/mL]	hepatic SOCS3 expression [4]	insulin resistance in insulin tolerance test [5]	effect on AKT activation in the adipose tissue ([6]; epididymal fat pads)	insulin-stimulated AKT activation in the liver ([6]; liver)
CCCc1cc(=O)[nH]c(=S)[nH]1 [PTU, propylthiouracil]	suppressed the increased expression of thyroid hormone responsive genes	No statistically significant differences	No significant differences	markedly suppressed the metabolic phenotypes	significantly suppressed the effect of whole body JNK1-deficiency					
IL6: inflammatory cytokine interleukin 6, given to mice by subcutaneous injection (1 μg/kg) (protein, UniProt P08505 25-211, looked up) Interleukin-6: FPTSQVRRGDFTEDTTPNRPVYTTSQVGGLITHVLWEIVEMRKELCNGNSDCMNNDDALAENNLKLPEIQRNDGCYQTGYNQEICLLKISSGLLEYHSYLEYMKNNLKDNKKDKARVLQRDTETLIHIFNQEVKDLHKIVLPTPISNALLTDKLESQKEWLRTKTIQFILKSLEEFLKVTLRSTRQT						44 ± 9.1	increased hepatic SOCS3 expression	became equally insulin resistant	only a moderate effect	reduced insulin-stimulated AKT activation
